Reference: US20030087831A1, “1,3,4-Oxadiazolin-2-one derivatives and drugs containing these derivatives as the active ingredient” (priority 1999, published 2003)

Tests used:
[1] = target: T1, Human Neutrophil Elastase (HNE) (Homo sapiens, UniProt P08246); experiment: Inhibitory effects on human neutrophil elastase (HNE); type: biochemical; details: Dixon plot; substrate MeO-Suc-Ala-Ala-Pro-Val-p-nitroanilide; 0.1 M HEPES buffer pH 8.0; 37° C.
T1 sequence (P08246 30-267): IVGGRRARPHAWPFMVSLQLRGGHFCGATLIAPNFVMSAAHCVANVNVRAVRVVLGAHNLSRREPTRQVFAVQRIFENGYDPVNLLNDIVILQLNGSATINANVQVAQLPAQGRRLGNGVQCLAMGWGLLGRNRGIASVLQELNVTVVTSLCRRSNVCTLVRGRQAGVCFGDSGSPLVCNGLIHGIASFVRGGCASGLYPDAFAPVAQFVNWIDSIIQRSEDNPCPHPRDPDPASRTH
Method: (1) Inhibitory Effects on Human Neutrophil Elastase (HNE)
Various concentrations of test compounds or DMSO as a vehicle were added to 0.1 M HEPES buffer (pH 8.0) containing the synthetic substrate MeO-Suc-Ala-Ala-Pro-Val-p-nitroanilide (final concentration, 0.1, 0.2 or 0.4 mM), 0.5 M sodium chloride solution and 0.1% Polyethyleneglycol 6000 in a final volume of 180 μL. This mixture was pre-incubated at 37° C. for 5 minutes. Then, the reaction was started by the addition of 20 μL of each enzyme solution (final concentration, 0.2U/mL). The hydrolysis rate of substrate (mO.D./minute) was measured by continuously monitoring absorbance at 405 nm for 10 minutes at 30 seconds intervals. The Ki values were determined by Dixon plot.

[2] = test system: HNE-Induced Lung Hemorrhage; experiment: Inhibitory effect on HNE-induced lung hemorrhage in hamsters; type: in vivo, male Syrian hamsters; details: Mesocricetus auratus, po, 1 h; administered orally one hour before intratracheal HNE (10 U/100 μL/lung); blood volume in BALF
Method: (2) Inhibitory Effect on HNE-Induced Lung Hemorrhage in Hamsters Test compound or vehicle solution (Polyethyleneglycol 400:ethanol:distilled water=51:16:33) was administered orally to male Syrian hamsters. One hour after administration, animals were anesthetized with sodium pentobarbital (60 mg/kg, i.p.) and their tracheae were exposed. Saline (100 μL/lung) or HNE (10 U/100 μL/lung) were instilled intratracheally. One hour after the instillation of HNE, animals were exsanguinated by cutting the abdominal aorta. The trachea was re-exposed and cannulated, then bronchoalveolar lavage fluid (BALF) was collected by infusing and withdrawing of saline (2.5 mL/animal). Erythrocytes in 0.2 mL of BALF sample were hemolyzed by adding 1.8 mL of distilled water. The lysate was centrifuged (3000 r.p.m., 4° C., 10 minutes), and absorbance of the supernatant at 412 nm was measured spectrophotometrically to calculate blood volume in BALF using a standard curve.

SMILES | Ki [1] [nM] | ED50 [2] [mg/kg]
COC(=O)N[C@H](C(=O)N1CCC[C@H]1C(=O)N[C@H](C(=O)c1nn(Cc2ccsc2)c(=O)o1)C(C)C)C(C)C [Example 1, (methoxycarbonyl)-L-valyl-N-[(1S)-([3-(thiophen-3-ylmethyl)-1,3,4-oxadiazolin-2-one-5-yl]carbonyl)-2-methylpropyl]-L-prolinamide] | 4.27 | 
COC(=O)N[C@H](C(=O)N1CCC[C@H]1C(=O)N[C@H](C(=O)c1nn(-c2ccccc2)c(=O)o1)C(C)C)C(C)C [Example 2, (methoxycarbonyl)-L-valyl-N-[(1S)-([3-phenyl-1,3,4-oxadiazolin-2-one-5-yl]carbonyl)-2-methylpropyl]-L-prolinamide] | 3.41 | 18.6
